Literature values, collected in patent US5246920A, “Treatment of hyperprolactinemia” (University of South Florida, priority 1992, dated 1993).
Where no end group is shown, it is not given here. [ ]: non-standard residue; d: D form.

Test system: old rats
Conditions: peptides given individually

**Q.** With “GHRH: Natural growth hormone releasing hormone, also known as growth hormone releasing factor (GHRF or GRF) (YADAIFTNSYRKVLGQLSARKLLQDIMSRQQGESNQERGARARL; ends and bridges not checked; UniProt P01286 32-75, looked up)” as the substance, how does the “sensitivity of old rats to the individually administered peptides, in words” value read?
**A.** The value was “relatively insensitive”.

**Q.** For H[dW]AW[dF]K-NH2 [GHRP-6], which “sensitivity of old rats to the individually administered peptides, in words” value is on record?
**A.** The value was “relatively insensitive”.
